Results reported in publication PMC4506092, “Utilizing Chemical Genomics to Identify Cytochrome b as a Novel Drug Target for Chagas Disease” (PLoS Pathogens, 2015).

Experiments:
[1] = system: T. cruzi epimastigote respiration (GNF7686-resistant, DR); test: T. cruzi epimastigote respiration (oxygen consumption, MitoXpress-Xtra), GNF7686-resistant; format: cell-based, Trypanosoma cruzi; conditions: for IC50: Trypanosoma cruzi, intact epimastigotes
Description: GNF7686 and cytochrome b inhibitors (0.2% DMS0 final concentration) were added to 384-well assay plates containing 20 μL of assay buffer (250 mM sucrose, 15 mM KCl, 5 mM MgCl2, 1 mM EGTA, 30 mM K2HPO4, pH 7.4) and allowed to dissolve for two hours. Meanwhile, T. cruzi epimastigotes were harvested (800 × g for 5 min at 4°C), washed twice with buffer A (10 mM Tris-HCl, pH = 7.4, 0.23 M mannitol, 0.07 M sucrose, 0.2 mM EDTA, 0.2% bovine serum albumin, 0.5 mM phenylmethanesulfonyl fluoride), and finally resuspended in buffer A at a final concentration of 150 × 10^6 epimastigotes / mL. Next, 20 μL of T. cruzi epimastigote suspension (3 x 10^6 parasites) was added to each sample well, and then 15 μL of MitoXpress-Xtra probe (Cayman Chemicals) was added (final assay volume of 60 μL). Probe phosphorescence is quenched in the presence of oxygen and is inversely proportional to the amount of oxygen present in the solution. HS mineral oil (20 μL, Cayman Chemicals) was added to wells to prevent oxygen exchange between the assay buffer and air. Blank wells containing assay buffer without parasites, corresponding compound, and mineral oil were prepared in parallel and values were subtracted from sample values to specifically measure changes in oxygen concentration caused by parasite respiration. All sample and blank wells were prepared in duplicate. The assay plate was transferred to a Gemini XPS fluorescence plate reader (Molecular Devices) and read at 3 minute intervals at excitation and emission wavelengths of 380 nm and 650 nm, respectively, for 30 minutes at 37°C. The slope for the linear portion of time course of fluorescence increase (rate of oxygen consumption) was calculated after subtraction of blank well values. Obtained slope values were normalized to the slope obtained for 0.2% DMSO, and plotted against the corresponding compound concentration for half maximal inhibitory concentration (IC50) value determination.

[2] = system: rat skeletal muscle mitochondria respiration; test: Respiration of isolated rat skeletal muscle mitochondria (oxygen consumption); format: biochemical; conditions: mitochondria from rat skeletal muscle
Description: (§1) GNF7686 and cytochrome b inhibitors (0.2% DMS0 final concentration) were added to 384-well assay plates containing 20 μL of assay buffer (250 mM sucrose, 15 mM KCl, 5 mM MgCl2, 1 mM EGTA, 30 mM K2HPO4, pH 7.4) and allowed to dissolve for two hours. Meanwhile, T. cruzi epimastigotes were harvested (800 × g for 5 min at 4°C), washed twice with buffer A (10 mM Tris-HCl, pH = 7.4, 0.23 M mannitol, 0.07 M sucrose, 0.2 mM EDTA, 0.2% bovine serum albumin, 0.5 mM phenylmethanesulfonyl fluoride), and finally resuspended in buffer A at a final concentration of 150 × 10^6 epimastigotes / mL. […] The assay plate was transferred to a Gemini XPS fluorescence plate reader (Molecular Devices) and read at 3 minute intervals at excitation and emission wavelengths of 380 nm and 650 nm, respectively, for 30 minutes at 37°C. The slope for the linear portion of time course of fluorescence increase (rate of oxygen consumption) was calculated after subtraction of blank well values. […]
Sprague Dawley rats were euthanized and skeletal muscle (from hind legs) was removed and stored in CP1 buffer (0.1 M KCl, 0.05 M Tris, 2 mM EGTA, pH 7.4 at 4°C) on ice. […] Respiration in isolated rat mitochondria was measured using the same protocol as described for T. cruzi epimastigotes using 150 μg protein / sample.

[3] = system: T. cruzi mutant complex III (cytochrome b L197F); test: T. cruzi complex III activity (decylubiquinol / cytochrome c reaction), GNF7686-resistant; format: biochemical, Trypanosoma cruzi; conditions: digitonin-permeabilized epimastigotes
Description: T. cruzi epimastigotes ([…], density of 5 × 10^7 parasites / mL) were harvested by centrifugation (800 × g for 5 minutes at 4°C) and resuspended at 10 mg / mL of protein in buffer A containing 0.1 mg digitonin / mg protein. The parasites were then incubated with the detergent for 10 minutes at 26°C. The pellet fraction was collected by centrifugation (13,000 × g for 5 min at 4°C) and immediately used in the complex III assay.
Complex III activity was monitored using a coupled decylubiquinol / cytochrome c reaction. Decylubiquinone was first reduced to decylubiquinol as described. […] The reduction of cytochrome c was monitored at 550 nm using the SpectraMax Plus384 absorbance microplate reader. Blank samples containing all components excluding decylubiquinol were processed in parallel and absorbance values were subtracted from sample absorbance values to specifically measure […] reduction of cytochrome c. All sample and blank wells were prepared in triplicate. For IC50 determination, the slope of the linear portion of the corrected respiration trace was determined, and normalized to the slope obtained for 0.2% DMSO condition.

[4] = system: T. cruzi epimastigote respiration (wild-type); test: T. cruzi epimastigote respiration (oxygen consumption, MitoXpress-Xtra), wild-type; format: cell-based; conditions: Trypanosoma cruzi; intact epimastigotes
Description: as §1, with “mL. Next, 20 μL of T. cruzi epimastigote suspension (3 x 10^6 parasites) was added to each sample well, and then 15 μL of MitoXpress-Xtra probe (Cayman Chemicals) was added (final assay volume of 60 μL). Probe phosphorescence is quenched in the presence of oxygen and is inversely proportional to the amount of oxygen present in the solution.” for “mL.”

[5] = system: T. cruzi intracellular amastigotes (wild-type); test: T. cruzi intracellular amastigote efficacy assay in NIH/3T3 cells, wild-type strain; format: cell-based; conditions: Trypanosoma cruzi, NIH3T3, intracellular amastigotes in NIH/3T3, 48-hour treatment, read-out: Amastigote EC50, WT
Description: To determine compound efficacy on T. cruzi intracellular amastigotes, NIH/3T3 cells were seeded (1,000 cells / well, 40 μL) into microscopy-grade, clear bottom, 384-well plates (Greiner) in RPMI-1640 medium containing 5% heat-inactivated fetal bovine serum and 100 IU penicillin / 100 μg streptomycin per mL. Plates were incubated overnight at 37°C / 5% CO2. Cells were infected with T. cruzi trypomastigotes at a multiplicity of infection (MOI) of 10 for the wild-type strain, and 20 for the GNF7686-resistant mutant strain. After six hours of infection (at 37°C / 5% CO2), the plates were washed by aspirating the medium and replacing with fresh screening medium to remove remaining extracellular trypomastigotes. The plates with infected cells were incubated overnight (37°C / 5% CO2) and compounds dissolved in DMSO were added to plate wells on the following day (0.2% DMSO final concentration). […] The plates were then scanned using the Evotec Opera High Content Screening System (Perkin Elmer) and amastigote proliferation was assessed by counting parasites within the 3T3 cells using CellProfiler version 2.1.0 cell image analysis software. […]

## CCCCCC[C@H]1C(=O)O[C@H](C)[C@H](NC(=O)c2cccc(NC=O)c2O)C(=O)O[C@@H](C)[C@@H]1OC(=O)CC(C)C [Antimycin A]
[1]
  Loss of potency on respiration, GNF7686-resistant vs wild-type: ~ 7 fold
  IC50: 270 nM
[2]; read-out: Rat mitochondrial respiration IC50
  IC50: 810 nM
[3]
  Loss of potency on complex III, mutant vs wild-type: ~ 100 fold
[4]
  IC50: 40 nM

## O=C(Cn1ccnc1[N+](=O)[O-])NCc1ccccc1 [Benznidazole]
[5]
  EC50: 1400 ± 170 nM

## CCc1c(C)c(C#N)c2nc3ccccc3n2c1O [GNF7686]
[1]
  IC50: 5200 nM
[5]
  EC50: 150 ± 30 nM
[2]
  Mammalian (rat) mitochondrial respiration: no effect on oxygen consumption up to: > 25 µM
[3]
  Loss of potency on complex III, mutant vs wild-type: 20 fold
[4]
  IC50: 210 nM
